Columns and labels:
[1] = test system: human mutated 5HT2A receptor, AP-3; test: Receptor-mediated inositol phosphate (IP3) accumulation, AP-3; assay type: cell-based
Method: On day one, 1×10^7 293 cells per 150 mm plate were plated out. On day two, two reaction tubes were prepared (the proportions to follow for each tube are per plate): tube A was prepared by mixing 20 μg DNA (e.g., pCMV vector; pCMV vector AP-1 cDNA, etc.) in 1.2 ml serum free DMEM (Irvine Scientific, Irvine, Calif.); tube B was prepared by mixing 120 μl lipofectamine (Gibco BRL) in 1.2 ml serum free DMEM. Tubes A and B were then admixed by inversions (several times), followed by incubation at room temperature for 30-45 min. The admixture is referred to as the "transfection mixture". Plated 293 cells were washed with 1×PBS, followed by addition of 10 ml serum free DMEM. 2.4 ml of the transfection mixture was then added to the cells, followed by incubation for 4 hrs at 37° C./5% CO2. On day 3, cells were trypsinized and counted, followed by plating of 1×10^6 cells/well (poly D-lysine treated 12-well plates). Cells were permitted to adhere to the wells, followed by one wash with 1×PBS. Thereafter, 0.5 μCi ^3 H-inositol in 1 ml inositol-free DMEM was added per well. Protocol B.
On day 4, the cells were washed with 0.5 ml PBS and then 0.45 ml of assay medium was added containing inositol-free/serum free media, 10 μM pargyline, 10 mM lithium chloride, or 0.4 ml of assay medium and 50 ul of 10× ketanserin (ket) to a final concentration of 10 μM. The cells were then incubated for 30 minutes at 37° C. Then the cells were washed with 0.5 ml PBS and 200 ul of fresh/ice cold stop solution (1M KOH; 18 mM Na-borate; 3.8 mM EDTA) was added/well. The solution was kept on ice for 5-10 minutes or until the cells were lysed and then neutralized by 200 μl of fresh/ice cold neutralization sol. (7.5% HCL). The lysate was then transferred into 1.5 ml microcentrifuge tubes and 1 ml of chloroform/methanol (1:2) was added/tube. The solution was vortexed for 15 seconds and the upper phase was applied to a Biorad AG1-X8 anion exchange resin (100-200 mesh). The resin was washed with water and 0.9 ml of the upper phase was loaded onto the column. The column was washed with 10 mls of 5 mM myo-inositol and 10 ml of 5 mM Na-borate/60 mM Na-formate. The inositol trisphosphates were eluted into scintillation vials containing 10 ml of scintillation cocktail with 2 ml of 0.1 M formic acid/1 M ammonium formate. The columns were regenerated by washing with 10 ml of 0.1 M formic acid/3M ammonium formate and rinsed twice with dd H2 O and stored at room temperature in water.
Candidate compound identified in the assays of Examples 9a-9c were then evaluated for inositol phosphate accumulation, following the protocol of Example 5 ([…] expressing human mutated 5HT2A receptor, AP-3), modified as follows: tube A was prepared by mixing 16 μg DNA (e.g., pCMV vector; pCMV vector AP-1 cDNA, etc.) in 1.0 ml serum free DMEM (Irvine Scientific, Irvine, Calif.); tube B was prepared by mixing 60 μl lipofectamine (Gibco BRL) in 1.0 ml serum free DMEM. Tubes A and B were then admixed by inversions (several times), followed by incubation at room temperature for 30 min. The admixture is referred to as the "transfection mixture". Plated 293 cells were washed with 10 ml Serum Free DMEM, followed by addition of 11 ml Serum Free DMEM. 2.0 ml of the transfection mixture was then added to the cells, followed by incubation for 5 hrs at 37° C./5% CO2. On day 3, cells were trypsinized and counted, followed by plating of 1×10^6 cells/well (12-well plates). Cells were permitted to adhere to the wells for 8 hrs, followed by one wash with 1×PBS. Thereafter, 0.5 μCi ^3 H-inositol in 1 ml inositol-free DMEM was added per well.
On day 4, the cells were washed with 1.5 ml PBS and then 0.9 ml of assay medium was added containing inositol-free/serum free media, 10 μM pargyline, 10 mM lithium chloride, for 5 min in 37° C./5% CO2 followed by 100 μl addition of candidate compound diluted in the same material. The cells were then incubated for 120 minutes at 37° C. […]

5HT2 receptors [2] = test: DOI locomotor activity test in rats (DOI inhibition study), intraperitoneal test compound; assay type: in vivo, rat (male Sprague-Dawley); conditions: i.p. 30 min before DOI (0.3 mg/kg s.c.)
Method: FIG. 3 provides a graphic summary of dose-response results from in vivo analysis of compound 116082 in a 1-(2,5-dimethoxy-4-iodophenyl)-2-aminopropane ("DOI") inhibition study (fine movement; ambulation; and animal rearing outcome measures). 116082 was administered 30 min prior to DOI. Animals were placed in locomotor activity cages 10 min after DOI administration and activity was measured for 10 min. Results are presented as total activity counts over the 10 min of exposure to the locomotor activity apparatus.
FIG. 4 provides a graphic summary of dose-response results from in vivo analysis of compound 116081 in a DOI inhibition study (fine movement; ambulation; and animal rearing outcome measures). 116081 was administered 30 min prior to DOI. Animals were placed in locomotor activity cages 10 min after DOI administration and activity was measured for 10 min. Results are presented as total activity counts over the 10 min of exposure to the locomotor activity apparatus.
Assessment of 5-HT2 receptor antagonism in vivo was made by using the DOI locomotor activity test in rats as described by Krebs-Thomson (Psychopharmacology, 140:69-74, 1998).
Motor function was assessed by using automated locomotor activity cages. The rats were placed in a standard rodent cage surrounded by photocell beams, which allow for automated recording of motor activity. […]

[3] = Bar catalepsy test in rats (extrapyramidal side effect analysis); assay type: in vivo, rat (male Sprague-Dawley)
[4] = DOI inhibition study in rats, oral administration of test compound (oral availability); assay type: in vivo, rat; conditions: in vivo; rat; 50 mg/kg oral vs 10 mg/kg i.p., inferred from DOI test
Method: (§1) FIG. 6 provides a graphic summary of the effects of oral administration of 116082 and 116081 in a DOI inhibition study in rats. Values represent the mean±SEMs (n=6/group). #P<0.05 vs. vehicle/vehicle, *P<0.05 vs. vehicle/DOI, Student t-test.
(§2) Based upon the in vivo data developed, oral bioavailability of compounds […] was considered. The compounds were administered by oral gavage at a dose of 50 mg/kg, 30 min prior to DOI in rats (see Example 11A, supra). Animals were placed in the locomotor activity cages 10 min after DOI administration and activity was measured for 10 min. Results, presented in FIG. 6, provide total activity counts over the 10 min of exposure to the locomotor activity apparatus.

5HT2 receptors [5] = test: as above; assay type: in vivo, rat
Method: as §1, §2

[6] = test system: human 5HT2A receptor compared with human 5HT2C receptor; test: Selectivity for 5HT2A over 5HT2C receptor (as measured by IC50 values); assay type: binding
5HT2 receptors [7] = conditions: peripheral administration, 0.3 mg/kg; cited from earlier work
[8] = rodents; cited from earlier work

Cn1cc(Br)c(-c2cccc(NC(=O)Nc3ccc(F)cc3)c2)n1 [Compound 116082, {[3-(4-bromo-1-methylpyrazol-3-yl)phenyl]amino}-N-(4-fluorophenyl)carboxamide]
IP3 % of Control ([1]; 10 μM test compound, triplicate, control without test compound): 11%
profile in in vitro functional assays ([1]; in vitro functional assays): selective 5HT2A inverse agonist properties
reversal of DOI-induced motor dysfunction (5HT2 receptors [2]): beneficially reverses DOI-induced motor dysfunction
extra-pyramidal side effects ([3]; at a dose 8 times greater than the dose required to block 5HT2A receptors in vivo): does not induce extra-pyramidal side effects in rats
induction of catalepsy ([3]; i.p., 10 to 80 mg/kg): does not induce catalepsy in rats
time spent on the bar ([3]; i.p., 10 to 80 mg/kg, 60 min before test): did not induce a dose-dependent increase in time spent on the bar
selectivity ratio ([3]; rat, in vivo, ip, bar test versus DOI test, rats, read-out: dose without extra-pyramidal side effects relative to dose required to block 5HT2A receptors in vivo): 8
bioavailability [4]: ≥ 20%
oral efficacy compared with intraperitoneal administration (5HT2 receptors [5]; 50 mg/kg oral vs 10 mg/kg i.p.): as efficacious as a 10 mg/kg dose of the same compounds administered intraperitoneally
reversal of DOI-induced motor dysfunction, oral (5HT2 receptors [5]; oral gavage 50 mg/kg, 30 min prior to DOI): reversed DOI-induced motor dysfunction in rats
oral activity (5HT2 receptors [5]; rat, DOI test, 50 mg/kg oral): orally active
selectivity preference for the 5HT2A receptor compared with the 5HT2C receptor [6]: 100 fold

COc1cc(CC(C)N)c(OC)cc1I (centres unmarked) [DOI, 1-(2,5-dimethoxy-4-iodophenyl)-2-aminopropane]
motor function effect of DOI alone (5HT2 receptors [7]): produces motor dysfunction in rats as shown by a decrease in ambulation

C[C@]12N[C@H](Cc3ccccc31)c1ccccc12 [MK-801]
effect of MK-801 alone on locomotor activity and stereotypy [8]: induces significant increases in locomotor activity and stereotypy
